The numbers were not newly measured in US20030064909A1, “Laundry detergent and/or fabric care compositions comprising a transferase” (The Procter & Gamble Company, priority 1998, published 2003), which cites them from elsewhere.

`OCCOc1ccccc1` [2-phenoxyethanol]: the solubility in water entry is reported as “about 2.67%”.

As for `OCCc1ccccc1` [2-phenylethanol], the solubility in water entry is “about 2%”.

Take `O=[N+]([O-])C1(Br)COCOC1` [Bronidox L, 5-bromo-5-nitro-1,3-dioxane]: the solubility in water result is given as “about 0.46%”.

Consider `O=[N+]([O-])C(Br)(CO)CO` [Bronopol, 2-bromo-2-nitropropane-1,3-diol], for which the solubility in water entry is reported as “about 25%”.

For `CC1(C)C(=O)N(CO)C(=O)N1CO` [DMDM hydantoin, 1,3-bis(hydroxymethyl)-5,5-dimethyl-2,4-imidazolidinedione], the solubility in water result was “more than 50%”.

`ClC=CC[N+]12CN3CN(CN(C3)C1)C2.[Cl-]` [Dowicil 200, 1-(3-Chlorallyl) -3,5,7-triaza-1-azoniaadamantane chloride]: the “solubility in water” value is “freely soluble in water”.

`OCc1ccccc1` [benzyl alcohol]: the solubility in water entry is reported as “about 4%”.

On to `[H]/N=C(\N/C(=N/[H])NCCCCCCNC(=N)NC(=N)Nc1ccc(Cl)cc1)Nc1ccc(Cl)cc1` [chlorhexidine diacetate, 1,1′-hexamethylene bis(5-(p-chlorophenyl)biguanide), reference compound], for which the solubility in water entry is “about 1.8%”.

As to `[H]/N=C(\N/C(=N/[H])NCCCCCCNC(=N)NC(=N)Nc1ccc(Cl)cc1)Nc1ccc(Cl)cc1` [chlorhexidine digluconate, 1,1′-hexamethylene bis(5-(p-chlorophenyl)biguanide), reference compound], the solubility in water entry is “about 70%”.

Take `CC(C)(O)C(Cl)(Cl)Cl` [chlorobutanol, 1,1,1-Trichloro-2-methylpropan-2-ol, reference compound]: the solubility in water entry was “about 0.8%”.

Consider `[Na+].[O-][n+]1ccccc1[S-]` [sodium pyrithione], for which the solubility in water entry is on record as “about 50%”.
